Patent US9239334B2, “Fatty acid C16: 1N7-palmitoleate a lipokine and biomarker for metabolic status” (PRESIDENT AND FELLOWS OF HARVARD COLLEGE, priority 2008, dated 2016)

Tests used:
[1] = test system: SCD-1, FAS and ELOVL6 expression in liver; assay: Liver lipogenic gene expression after 6-hour lipid infusion; assay type: in vivo; details: 6-hour infusion, compared to vehicle-infused mice
Text: FIG. 5A-5E reflects the regulation of SCD-1 promoter activity in vivo. […] PUF: polyunsaturated fatty acid response element. FIG. 5B is the regulation of WT and mutant SCD-1 promoter activities by fatty acids. AA: arachidonic acid. FIG. 5C is the regulation of wild-type and mutant SCD-1 promoter activities by plasma lipids. Plasma lipids extracted from WT or FABP^−/− (DK) mice were used to treat FAO cells Infected with WT or mutant SCD-1 promoter-carrying adenoviruses and luciferase assays performed as described in the Examples. FIG. 5D presents the in vivo regulation of wild-type and mutant SCD-1 promoter activities. Luciferase assays were performed on liver tissues of WT or DK mice injected with WT or mutant SCD-1 reporter carrying adenoviruses. FIG. 5E is liver gene expression in mice infused with vehicle, TG:palmitate or TG:palmitoleate. *, p<0.05. […] INTRALIPID® fatty acid lipid infusion solution with 2 mM triglycerides:palmitate or palmitoleate were prepared using a previously described protocol with modifications (Stein et al., 1997). Briefly, lipids were dissolved in a solvent containing 5% glycerol and 0.72% phosphocholine in 0.9% saline, heated at 80° C. for 10 min, and then sonicated 1 min four times. For TG:palmitoleate, the heating was omitted to avoid oxidization of the lipids. Lipids stay in suspension for a week, so to prevent clogging the preparations must be vortexed well before loading the syringe and tubing. Seven days before lipid infusion, mice were anesthetized and an indwelling catheter inserted in the left internal jugular vein, then the animals were left to recover the following days. After overnight fasting, lipids were infused at a rate of 500 μl/kg/min for six hours. At the end of the infusion, insulin (1 U/Kg) was injected into mice via the infusion tubing and tissues were collected for subsequent gene expression and immunoblotting analyses. To determine serum FFA level during lipid infusion, blood was collected from mouse tails at different time intervals and spun down to collect plasma. Serum FFAs were determined using a commercial kit (Wako Chem.). TG:palmitate and TG:palmitoleate are difficult to dissolve at a concentration that are compatible with the infusion rate of hyperinsulinemic-euglycemic clamp study and yet maintain efficient delivery of these lipids. Therefore fatty acid: palmitoleate was used to infuse mice for clamp study. Palmitoleate was dissolved in saline containing 2% BSA (vehicle) at 15 mM with repeated sonications and was infused through the tubing at a rate of 3.3 μl/min for two hours. A standard hyperinsulinemic-euglycernic clamp was then performed as previously described (Furuhashi et al., 2007). Vehicle or palmitoleate solution was used to dissolve tracer ^3H-glucose and so lipid was also infused at 3.3 μl/min throughout the 4-hour period of clamp study.

[2] = test system: insulin receptor, IRS-1, IRS-2 and AKT phosphorylation in liver; assay: Insulin signaling in liver of lipid-infused mice (immunoblotting); assay type: in vivo; details: TG lipid infusion, compared to vehicle controls
Text: (§1) FIGS. 7A-7G show data on the regulation of insulin signaling and glucose metabolism by palmitoleate. FIG. 7A is the basal and insulin-stimulated phosphorylation of insulin receptor (IR), insulin receptor substrate-1 (IRS-1) and -2 (IRS-2) and AKT in liver of mice infused with vehicle (Veh), TG:palmitoleate (C16:1n7) or TG:palmitate (C16). Representative blots are shown and quantifications on the right are averaged results of three mice in each treatment group. […] Representative blots are shown and quantifications on the right are averaged results of three mice in each treatment group.
(§2) The left panel presents the insulin-stimulated phosphorylation of insulin receptor and AKT in liver of mice infused with vehicle or palmitoleate. […] Mice were infused with vehicle or palmitoleate at 3.3 μl/min for six hrs, and insulin (1 U/Kg) was injected through the infusing tubing. Three minutes after insulin injection, tissues were collected and immunoblotting analyses were performed.
(§3) The present invention also provides for the regulation of insulin action by increased circulating palmitoleate. To study whether palmitoleate regulates systemic metabolic responses, lipid infusions were administered in conscious mice. Lipid infusion has been used widely to investigate the relationship between plasma FFAs and insulin resistance, but almost all studies using this protocol utilized preparations of natural lipid products containing a variety of fatty acids. Kim et al., 114 J. Clin. Invest. 823-27 (2004); Kim et al., 277 J. Biol. Chem. 32915-22 (2002); Yu et al., 277 J. Biol. Chem. 50230-36 (2002). […]
(§4) Samples of 200 μl serum were collected using heparin-coated glass tubes and spun at 13,000 g in a microcentrifuge to separate the plasma. […] Tissue protein lysates was separated with SDS-PAGE gels and phosphorylated or total proteins were detected with the following antibodies: phospho AKT Serine 473, AKT, insulin receptor, phospho-tyrosine (Santa Cruz Biotech.); IRS-1 and IRS-2 (Upstate); phospho-GSK and GSK (Cell Signaling Tech.); phospho-insulin receptor from (Calbiocbem). […]

[3] = target: T1, aP2 (Mus musculus, UniProt P04117); assay: Lipogenic gene expression in adipose tissue of mice treated with aP2 inhibitor; assay type: in vivo; details: WT mice on HFD, oral gavage 40 mg/kg/day for two months
T1 construct: from tissue; host or cells: epididymal fat pads of mice on high-fat diet (in vivo oral dosing)
T1 sequence (P04117 1-132): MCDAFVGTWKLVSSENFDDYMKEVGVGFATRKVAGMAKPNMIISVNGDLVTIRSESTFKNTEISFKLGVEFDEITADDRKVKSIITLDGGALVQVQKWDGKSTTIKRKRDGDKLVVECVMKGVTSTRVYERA
Procedure: FIGS. 6A-6D present data related to the regulation of lipogenic genes in adipose and liver of WT and FABP^−/− mice. […] Gene expression patterns in epididymal fat pad were determined by quantitative real-time PCR. FIG. 6B is regulation of lipogenic gene promoter activities by FABPs in differentiated adipocytes. […] Gene expressions in epididymal fat pads from mice treated with vehicle or aP2 inhibitor were determined with quantitative real-time PCR. […] relates to the differential regulation of lipogenic gene expression in adipose and liver tissues. Levels of the mRNAs in liver and epididymal fat pad from mice fed with high-fat diet were determined with quantitative real-time PCR. ACC1, acetyl-CoA carboxylase1; FAS, fatty acid synthase; SCD-1, stearoyl-CoA desaturase; ELOVL6, fatty acid elongase 6; DGAT1, acyl-CoA:diacylglycerol acyltransferase 1. *, p<0.05.
To directly address this, adipogenic cell lines from FABP−/−mice were differentiated them into adipocytes (FIG. 19). […] This observation agrees with that observed in adipose tissue of FABP-deficient mice. This pattern was tested in vivo in an alternative experimental system where aP2 function in mice is blocked through an orally administrated synthetic inhibitor. […] Furuhashi et al., 2007. […]

[4] = test system: SCD-1 promoter; assay: SCD-1 promoter-driven luciferase reporter in FAO hepatoma cells; assay type: cell-based, murine; details: hepatocytes (FAO) treated with a single fatty acid, 300 μM
Procedure: This possibility was tested using several highly sensitive assays to probe the functional profile and activities of plasma lipids. SCD-1 was chosen as a target because it was determined previously that the suppression of hepatic SCD-1 activity is a major alteration in FABP-deficient mice under diet-induced or genetic obesity. Cao et al., 2006; Maeda et al., 2005. Hepatic SCD-1 expression is regulated by a variety of hormones and nutritional factors such as insulin, glucose, and polyunsaturated fatty acids (PUFAs). Ntambi & Miyazaki, 43 Prog. Lipid Res. 91-104 (2004). […] Chu et al., 26 Mol. Cell Biol. 6786-98 (2006); Ntambi, 40 J. Lipid Res. 1549-58 (1999). The 1.5 kb murine SCD-1 promoter was placed in front of a luciferase reporter and inserted into an adenovirus construct. FAO rat hepatoma cells infected with this adenovirus verified the responsiveness of this reporter to PUFA, consistent with previous observations (FIG. 15). Because this assay system was adapted to a microplate format, very small amounts of lipids were required for experimentation. This system allowed direct testing for the effects of lipids extracted from plasma of WT and FABP-deficient animals.
Lipids were extracted from whole plasma and applied to liver cells expressing the SCD-1 promoter reporter gene. […] To control for any difference in the amount of lipids extracted from plasma and to mimic the in vivo regulation of SCD-1 expression, mixtures of FFAs were generated with the same molar ratio detected in WT or FABP-deficient plasma lipids using the major fatty acids listed in FIG. 2C. […]
as §4

[5] = test system: insulin receptor signaling in muscle tissue; assay: Insulin signaling in muscle of lipid-infused mice (immunoblotting); assay type: in vivo; details: TG lipid infusion
Text: as §1, §2, §3, §4

CCCCCCCCCCCCCCCC(=O)OCC(COC(=O)CCCCCCCCCCCCCCC)OC(=O)CCCCCCCCCCCCCCC [TG-palmitate, reference compound]
SCD-1 expression in liver [1]: increase | fatty acid elongase 6 (ELOVL6) expression in liver [1]: increase | fatty acid synthase (FAS) expression in liver [1]: increase | proximal insulin-signaling pathway in liver (insulin receptor, IRS-1, IRS-2, AKT) [2]: suppressed

CCCCCC/C=C\CCCCCCCC(=O)OCC(COC(=O)CCCCCCC/C=C\CCCCCC)OC(=O)CCCCCCC/C=C\CCCCCC [TG-palmitoleate]
SCD-1 expression in liver [1]: substantial decrease | fatty acid elongase 6 (ELOVL6) expression in liver [1]: substantial decrease | fatty acid synthase (FAS) expression in liver [1]: substantial decrease | proximal insulin-signaling pathway in liver (insulin receptor, IRS-1, IRS-2, AKT) [2]: strongly potentiated

CCc1c(-c2ccccc2)c(-c2ccccc2)nn1-c1ccccc1-c1cccc(OCC(=O)O)c1 [aP2 inhibitor]
lipogenic gene expression in adipose tissues [3]: increased

CCCCC/C=C\C/C=C\C/C=C\C/C=C\CCCC(=O)O [arachidonic acid, reference compound]
SCD-1 promoter-driven reporter activity [4]: suppressed

CCCCCCCCCCCCCCCC(=O)O [palmitate, reference compound]
insulin receptor signaling in muscle [5]: impaired

C16:1n7-palmitoleate
insulin receptor signaling in muscle [5]: enhanced
